tested on: HIV-1 (H9IIIB strain); assay: Cell-based HIV infection assay using a reporter (Cell-Based), MT4-GFP cells; conditions: Human immunodeficiency virus 1, MT4-GFP cells infected with HIV-1 H9IIIB; 50% normal human serum; mean of at least two independent experiments; read-out: Cell-based IP
Procedure, shortened: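 IC50 from 4-parameter dose-response of % viral growth inhibition, using the 48 h/24 h infected-cell ratio scaled between DMSO and a protease/integrase/NNRTI triple-drug control. Assay used MT4 cells with HIV-LTR-GFP reporter, pre-infected 24 h with HIV-1 H9IIIB, in 50% normal human serum.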

Q: For `C[C@@H]1CNC[C@H](CCc2c(F)cccc2NC(=O)[C@@H](N)[C@@H](c2cc(F)cc(F)c2)C2CCOCC2)N1S(=O)(=O)c1ccccc1` [Example 284, (βR)-3,5-difluoro-N-(3-fluoro-2-{2-[(2S,6R)-6-methyl-1-(phenylsulfonyl)piperazin-2-yl]ethyl}phenyl)-β-(tetrahydro-2H-pyran-4-yl)-L-phenylalaninamide], which IC50 is on record?
A: Its IC50 is 40 nM.

Q: With `COC(=O)N[C@H](C(=O)Nc1cccc(F)c1CC[C@H]1CNC[C@@H](C)N1S(=O)(=O)c1ccccc1)C1(c2cc(F)cc(F)c2)CCOCC1` [Example 285, methyl {(1S)-1-[4-{3,5-difluorophenyl)tetrahydro-2H-pyran-4-yl]-2-[(3-fluoro-2-{2-[(2S,6R)-6-methyl-1-(phenylsulfonyl)piperazin-2-yl]ethyl}phenyl)amino]-2-oxoethyl}carbamate] as the molecule, how does the IC50 read?
A: Its IC50 is 29 nM.

Q: How did the IC50 turn out when `COC(=O)N[C@H](C(=O)Nc1cccc(F)c1CC[C@H]1CNC[C@H](C)N1S(=O)(=O)c1ccccc1)C1(c2cc(F)cc(F)c2)CCOCC1` [Example 286, methyl {(1S)-1-[4-(3,5-difluorophenyl)tetrahydro-2H-pyran-4-yl]-2-[(3-fluoro-2-{2-[(2S,6S)-6-methyl-1-(phenylsulfonyl)piperazin-2-yl]ethyl}phenyl)amino]-2-oxoethyl}carbamate] was run?
A: The IC50 was 33 nM.

Q: With `C[C@@H]1CNC[C@H](CCc2c(F)cccc2NC(=O)[C@@H](N)C2(c3cc(F)cc(F)c3)CCOCC2)N1S(=O)(=O)c1ccccc1` [Example 287, (2S)-2-amino-2-[4-(3,5-difluorophenyl)tetrahydro-2H-pyran-4-yl]-N-(3-fluoro-2-{2-[(2S,6R)-6-methyl-1-(phenylsulfonyl)piperazin-2-yl]ethyl}phenyl)ethanamide] as the molecule, how does the IC50 read?
A: The IC50 was 91 nM.

Q: Which IC50 does the source give for `C[C@@H]1CNC[C@H](CCc2c(F)cccc2NC(=O)[C@@H](N)[C@@H](c2ccc(F)c(F)c2)C2CCOCC2)N1S(=O)(=O)c1ccccc1` [Example 288, (βR)-3,4-difluoro-N-(3-fluoro-2-{2-[(2S,6R)-6-methyl-1-(phenylsulfonyl)piperazin-2-yl]ethyl}phenyl)-β-(tetrahydro-2H-pyran-4-yl)-L-phenylalaninamide] here?
A: The IC50 was 23 nM.

Q: How did the IC50 turn out when `C[C@H]1CNC[C@H](CCc2c(F)cccc2NC(=O)[C@@H](N)[C@@H](c2ccc(F)c(F)c2)C2CCOCC2)N1S(=O)(=O)c1ccccc1` [Example 289, (βR)-3,4-difluoro-N-(3-fluoro-2-{2-[(2S,6S)-6-methyl-1-(phenylsulfonyl)piperazin-2-yl]ethyl}phenyl)-β-(tetrahydro-2H-pyran-4-yl)-L-phenylalaninamide] was run?
A: Its IC50 is 23 nM.

Q: `COC(=O)N[C@H](C(=O)Nc1cccc(F)c1CC[C@H]1CNC[C@@H](C)N1S(=O)(=O)c1ccccc1)C1(c2ccc(F)c(F)c2)CCOCC1` [Example 290, methyl {(1S)-1-[4-(3,4-difluorophenyl)tetrahydro-2H-pyran-4-yl]-2-[(3-fluoro-2-{2-[(2S,6R)-6-methyl-1-(phenylsulfonyl)piperazin-2-yl]ethyl}phenyl)amino]-2-oxoethyl}carbamate] was tested. Which IC50 did it give?
A: Its IC50 is 15 nM.

Q: Which IC50 does the source give for `C[C@@H]1CNC[C@H](CCc2c(F)cccc2NC(=O)[C@@H](N)C2(c3ccc(F)c(F)c3)CCOCC2)N1S(=O)(=O)c1ccccc1` [Example 291, (2S)-2-amino-2-[4-(3,4-difluorophenyl)tetrahydro-2H-pyran-4-yl]-N-(3-fluoro-2-{2-[(2S,6R)-6-methyl-1-(phenylsulfonyl)piperazin-2-yl]ethyl}phenyl)ethanamide] here?
A: The IC50 was 100 nM.

Q: Which IC50 does the source give for `C[C@H]1CNC[C@H](CCc2c(F)cccc2NC(=O)[C@@H](N)C2(c3ccc(F)c(F)c3)CCOCC2)N1S(=O)(=O)c1ccccc1` [Example 292, (2S)-2-amino-2-[4-(3,4-difluorophenyl)tetrahydro-2H-pyran-4-yl]-N-(3-fluoro-2-{2-[(2S,6S)-6-methyl-1-(phenylsulfonyl)piperazin-2-yl]ethyl}phenyl)ethanamide] here?
A: The IC50 was 130 nM.

Q: `COC(=O)N[C@H](C(=O)Nc1cccc(F)c1CC[C@H]1CNC[C@@H](C)N1S(=O)(=O)c1ccccc1)[C@@H](c1ccc(F)c(F)c1)C1CCOCC1` [Example 293, (βR)-3,4-difluoro-N-(3-fluoro-2-{2-[(2S,6R)-6-methyl-1-(phenylsulfonyl)piperazin-2-yl]ethyl}phenyl)-Nα-(methoxycarbonyl)-β-(tetrahydro-2H-pyran-4-yl)-L-phenylalaninamide] was tested. Which IC50 did it give?
A: Its IC50 is 8.7 nM.

Q: `C[C@H]1CNC[C@H](CCc2c(F)cccc2NC(=O)[C@@H](N)[C@@H](c2cc(F)cc(F)c2)C2CCOCC2)N1S(=O)(=O)c1ccccc1` [Example 294, (βR)-3,5-difluoro-N-(3-fluoro-2-{2-[(2S,6S)-6-methyl-1-(phenylsulfonyl)piperazin-2-yl]ethyl}phenyl)-β-(tetrahydro-2H-pyran-4-yl)-L-phenylalaninamide] was tested. Which IC50 did it give?
A: Its IC50 is 40 nM.

Q: With `COC(=O)N[C@H](C(=O)Nc1cccc(F)c1CC[C@H]1CNC[C@H](C)N1S(=O)(=O)c1ccccc1)[C@@H](c1ccc(F)c(F)c1)C1CCOCC1` [Example 295, (βR)-3,4-difluoro-N-(3-fluoro-2-{2-[(2S,6S)-6-methyl-1-(phenylsulfonyl)piperazin-2-yl]ethyl}phenyl)-Nα-(methoxycarbonyl)-β-(tetrahydro-2H-pyran-4-yl)-L-phenylalaninamide] as the molecule, how does the IC50 read?
A: Its IC50 is 4.2 nM.

Q: For `COC(=O)N[C@H](C(=O)Nc1cccc(F)c1CC[C@H]1CNC[C@H](C)N1S(=O)(=O)c1ccccc1)[C@@H](c1cc(F)cc(F)c1)C1CCOCC1` [Example 296, (βR)-3,5-difluoro-N-(3-fluoro-2-{2-[(2S,6S)-6-methyl-1-(phenylsulfonyl)piperazin-2-yl]ethyl}phenyl)-Nα-(methoxycarbonyl)-β-(tetrahydro-2H-pyran-4-yl)-L-phenylalaninamide], which IC50 is on record?
A: Its IC50 is 9.9 nM.

Q: Which IC50 does the source give for `COC(=O)N[C@H](C(=O)Nc1cccc(F)c1CC[C@H]1CNC[C@H](C)N1S(=O)(=O)c1ccccc1)C1(c2ccc(F)c(F)c2)CCOCC1` [Example 297, methyl {(1S)-1-[4-(3,4-difluorophenyl)tetrahydro-2H-pyran-4-yl]-2-[(3-fluoro-2-{2-[(2S,6S)-6-methyl-1-(phenylsulfonyl)piperazin-2-yl]ethyl}phenyl)amino]-2-oxoethyl}carbamate] here?
A: The IC50 was 16 nM.

Q: Which IC50 does the source give for `C[C@@H]1CNC[C@H](CCc2c(F)cncc2NC(=O)[C@@H](N)[C@@H](c2ccc(Cl)cc2)C2CCOCC2)N1S(=O)(=O)c1ccc(Cl)cc1` [Example 298, (βR)-4-chloro-N-[4-(2-{(2S,6R)-1-[(4-chlorophenyl)sulfonyl]-6-methylpiperazin-2-yl}ethyl)-5-fluoropyridin-3-yl]-β-(tetrahydro-2H-pyran-4-yl)-L-phenylalaninamide] here?
A: Its IC50 is 36 nM.

Q: How did the IC50 turn out when `C[C@@H]1C[C@](c2ccc(Cl)cc2)([C@H](N)C(=O)Nc2cccc(F)c2CC[C@H]2CNC[C@H](C)N2S(=O)(=O)c2ccccc2)C[C@H](C)O1` [Example 300, (S)-2-amino-2-((2R,4r,6S)-4-(4-chlorophenyl)-2,6-dimethyltetrahydro-2H-pyran-4-yl)-N-(3-fluoro-2-(2-((2S,6S)-6-methyl-1-(phenylsulfonyl)piperazin-2-yl)ethyl)phenyl)acetamide] was run?
A: Its IC50 is 98 nM.

Q: How did the IC50 turn out when `C[C@@H]1C[C@](c2ccc(Cl)cc2)([C@H](N)C(=O)Nc2cccc(F)c2CC[C@H]2CNC[C@@H](C)N2S(=O)(=O)c2ccccc2)C[C@H](C)O1` [Example 301, (S)-2-amino-2-((2R,4r,6S)-4-(4-chlorophenyl)-2,6-dimethytetrahydro-2H-pyran-4-yl)-N-(3-fluoro-2-(2-((2S,6R)-6-methyl-1-(phenylsulfonyl)piperazin-2-yl)ethyl)phenyl)acetamide] was run?
A: The IC50 was 480 nM.

Q: `O=C(C[C@@H](c1ccc(F)cc1)c1cc(F)cc(F)c1)Nc1cncc(F)c1CC[C@H]1CNCCN1S(=O)(=O)CC1CC1` [Example 302, (3S)-N-[4-(2-{(2S)-1-[(cyclopropylmethyl)sul-fonyl]piperazin-2-yl}ethyl)-5-fluoropyridin-3-yl]-3-(3,5-difluorophenyl)-3-(4-fluorophenyl)propanamide] was tested. Which IC50 did it give?
A: Its IC50 is 24 nM.

Q: How did the IC50 turn out when `O=C(C[C@@H](c1ccc(F)cc1)c1cc(F)cc(F)c1)Nc1cncc(F)c1CC[C@H]1CNCCN1S(=O)(=O)c1ccccn1` [Example 304, (3S)-3-(3,5-difluorophenyl)-3-(4-fluorophenyl)-N-(5-fluoro-4-{2-[(2S)-1-(pyridin-2-ylsulfonyl)piperazin-2-yl]ethyl}pyridin-3-yl)propanamide] was run?
A: Its IC50 is 3.6 nM.

Q: `O=C(C[C@@H](c1ccc(F)cc1)c1cc(F)cc(F)c1)Nc1cncc(F)c1CC[C@H]1CNCCN1S(=O)(=O)c1cccnc1` [Example 305, (3S)-3-(3,5-difluorophenyl)-3-(4-fluorophenyl)-N-(5-fluoro-4-{2-[(2S)-1-(pyridin-3-ylsulfonyl)piperazin-2-yl]ethyl}pyridin-3-yl)propanamide] was tested. Which IC50 did it give?
A: The IC50 was 8.2 nM.

Q: Which IC50 does the source give for `Cn1ccc(S(=O)(=O)N2CCNC[C@@H]2CCc2c(F)cncc2NC(=O)C[C@@H](c2ccc(F)cc2)c2cc(F)cc(F)c2)n1` [Example 306, (3S)-3-(3,5-difluorophenyl)-N-[5-fluoro-4-(2-{(2S)-1-[(1-methyl-1H-pyrazol-3-yl)sulfonyl]piperazin-2-yl}ethyl)pyridin-3-yl]-3-(4-fluorophenyl)propanamide] here?
A: The IC50 was 6.5 nM.

Q: With `Nc1ccc(S(=O)(=O)N2CCNC[C@@H]2CCc2c(F)cncc2NC(=O)C[C@@H](c2ccc(F)cc2)c2cc(F)cc(F)c2)cn1` [Example 307, (3S)-N-[4-(2-{(2S)-1-[(6-aminopyridin-3-yl)sulfonyl]piperazin-2-yl}ethyl)-5-fluoropyridin-3-yl]-3-(3,5-difluorophenyl)-3-(4-fluorophenyl)propanamide] as the molecule, how does the IC50 read?
A: Its IC50 is 130 nM.

Q: With `O=C1COc2ccc(S(=O)(=O)N3CCNC[C@@H]3CCc3c(F)cncc3NC(=O)C[C@@H](c3ccc(F)cc3)c3cc(F)cc(F)c3)cc2N1` [Example 308, (3S)-3-(3,5-difluorophenyl)-N-[5-fluoro-4-(2-{(2S)-1-[(3-oxo-3,4-dihydro-2H-1,4-benzoxazin-6-yl)sulfonyl]piperazin-2-yl}ethyl)pyridin-3-yl]-3-(4-fluorophenyl)propanamide] as the molecule, how does the IC50 read?
A: Its IC50 is 180 nM.
